According to ChEMBL document CHEMBL5303573, “Mapping human microbiome drug metabolism by gut bacteria and their genes” (Nature, 2019):

Legend:
[1] = The drug is tested on Collinsella intestinalis strain: DSM13280 for biotransformation. The drug concentrations were measured before and after a 12-h incubation by liquid-chromatography-coupled mass spectrometry (LC–MS); details: 2 µM
[2] = The drug is tested on Bacteroides cellulosilyticus strain: DSM14838 for biotransformation. The drug concentrations were measured before and after a 12-h incubation by liquid-chromatography-coupled mass spectrometry (LC–MS); details: 2 µM
[3] = The drug is tested on Clostridium scindens strain: ATCC35704 for biotransformation. The drug concentrations were measured before and after a 12-h incubation by liquid-chromatography-coupled mass spectrometry (LC–MS); details: 2 µM
[4] = The drug is tested on Clostridium sporogenes strain: ATCC15579 for biotransformation. The drug concentrations were measured before and after a 12-h incubation by liquid-chromatography-coupled mass spectrometry (LC–MS); details: 2 µM
[5] = The drug is tested on Escherichia coli strain: BW25113 for biotransformation. The drug concentrations were measured before and after a 12-h incubation by liquid-chromatography-coupled mass spectrometry (LC–MS); details: 2 µM
[6] = victivallis vadensis, 12 h, 2 µM
Description: The drug is tested on Victivallis vadensis strain: ATCC BAA-548 for biotransformation. The drug concentrations were measured before and after a 12-h incubation by liquid-chromatography-coupled mass spectrometry (LC–MS)

[7] = The drug is tested on Salmonella typhimurium strain: LT2 for biotransformation. The drug concentrations were measured before and after a 12-h incubation by liquid-chromatography-coupled mass spectrometry (LC–MS); details: salmonella enterica subsp. enterica, 2 µM
[8] = The drug is tested on Clostridium hathewayi strain: DSM13479 for biotransformation. The drug concentrations were measured before and after a 12-h incubation by liquid-chromatography-coupled mass spectrometry (LC–MS); details: hungatella hathewayi, 2 µM
[9] = The drug is tested on Clostridium spiroforme strain: DSM1552 for biotransformation. The drug concentrations were measured before and after a 12-h incubation by liquid-chromatography-coupled mass spectrometry (LC–MS); details: thomasclavelia spiroformis, 2 µM

SMILES | Bacterial Biotransformation [1] | Bacterial Biotransformation [2] | Bacterial Biotransformation [3] | Bacterial Biotransformation [4] | Bacterial Biotransformation [5] | Bacterial Biotransformation [6] | Bacterial Biotransformation [7] | Bacterial Biotransformation [8] | Bacterial Biotransformation [9]
CC(C)(C)NCC(O)COc1cccc2c1CC(O)C(O)C2 (stereo unspecified) [NADOLOL] | Compound NOT metabolized | Compound NOT metabolized | Compound NOT metabolized | Compound NOT metabolized | – | – | – | – | –
CC(=O)O[C@H]1C(=O)[C@@]2(C)[C@H]([C@H](OC(=O)c3ccccc3)[C@]3(O)C[C@H](OC(=O)[C@H](O)[C@@H](NC(=O)c4ccccc4)c4ccccc4)C(C)=C1C3(C)C)[C@]1(OC(C)=O)CO[C@@H]1C[C@@H]2O [PACLITAXEL] | Compound NOT metabolized | Compound NOT metabolized | Compound NOT metabolized | Compound NOT metabolized | Compound NOT metabolized | Compound NOT metabolized | – | – | –
CC(C)(C)NC[C@H](O)COc1ccccc1C1CCCC1.CC(C)(C)NC[C@H](O)COc1ccccc1C1CCCC1.O=S(=O)(O)O [PENBUTOLOL SULFATE] | Compound NOT metabolized | Compound NOT metabolized | Compound NOT metabolized | Compound NOT metabolized | Compound NOT metabolized | Compound NOT metabolized | Compound NOT metabolized | – | –
CCc1nc(N)nc(N)c1-c1ccc(Cl)cc1 [PYRIMETHAMINE] | Compound NOT metabolized | Compound NOT metabolized | Compound NOT metabolized | Compound NOT metabolized | – | – | – | – | –
C=C[C@H]1CN2CC[C@H]1C[C@H]2[C@H](O)c1ccnc2ccc(OC)cc12.C=C[C@H]1CN2CC[C@H]1C[C@H]2[C@H](O)c1ccnc2ccc(OC)cc12.O.O.O=S(=O)(O)O [QUININE SULFATE] | Compound NOT metabolized | – | – | – | – | – | – | Compound NOT metabolized | Compound NOT metabolized
CCC(=O)NCC[C@@H]1CCc2ccc3c(c21)CCO3 [RAMELTEON] | Compound NOT metabolized | Compound NOT metabolized | Compound NOT metabolized | Compound NOT metabolized | Compound NOT metabolized | – | – | – | –
O=C(O[C@H]1C[C@H]2CC[C@@H](C1)[N+]21CCCC1)C(O)(c1ccccc1)c1ccccc1.[Cl-] [TROSPIUM CHLORIDE] | Compound NOT metabolized | Compound NOT metabolized | Compound NOT metabolized | Compound NOT metabolized | Compound NOT metabolized | Compound NOT metabolized | – | – | –

The next lines start with results.

Bacterial Biotransformation [1] | Bacterial Biotransformation [2] | Bacterial Biotransformation [3] | Bacterial Biotransformation [4] | Bacterial Biotransformation [5] | Bacterial Biotransformation [6] | SMILES | Bacterial Biotransformation [7] | Bacterial Biotransformation [8] | Bacterial Biotransformation [9]
Compound NOT metabolized | Compound NOT metabolized | Compound NOT metabolized | – | – | Compound NOT metabolized | O=C(NC(Cc1cc(=O)[nH]c2ccccc12)C(=O)O)c1ccc(Cl)cc1 (stereo unspecified) [REBAMIPIDE] | – | – | –
Compound NOT metabolized | Compound NOT metabolized | – | Compound NOT metabolized | Compound NOT metabolized | Compound NOT metabolized | COC(=O)[C@H]1[C@H]2C[C@@H]3c4[nH]c5cc(OC)ccc5c4CCN3C[C@H]2C[C@@H](OC(=O)c2cc(OC)c(OC)c(OC)c2)[C@@H]1OC [RESERPINE] | – | – | –
Compound NOT metabolized | – | Compound NOT metabolized | Compound NOT metabolized | Compound NOT metabolized | – | CCN(CC)CCNC(=O)c1cc(S(C)(=O)=O)ccc1OC [TIAPRIDE] | – | – | –
Compound NOT metabolized | – | Compound NOT metabolized | Compound NOT metabolized | – | – | Cc1ccc(/C(=C\CN2CCCC2)c2ccccn2)cc1 [TRIPROLIDINE] | – | – | –
